According to patent publication US20250099478A1, “PLASMA KALLIKREIN INHIBITORS” (Merck Sharp & Dohme LLC, priority 2022, published 2025):

Each molecule was assayed against T1, Human plasma kallikrein (Homo sapiens, UniProt P03952) (assay: Plasma Kallikrein Assay). Settings: purified Human plasma kallikrein 0.5 nM, substrate Acetyl-K-P-R-AFC; read-out: PKal IC50.
T1 construct: yields a heavy chain (371 amino acids) and a light chain (248 amino acids); purchased Enzyme Research Laboratories
Assay type: biochemical
Method: The effectiveness of a compound of the present invention as an inhibitor of plasma kallikrein can be determined using a relevant purified serine protease, and an appropriate synthetic substrate. The rate of hydrolysis of the chromogenic or fluorogenic substrate by the relevant serine protease was measured both in the absence and presence of compounds of the present invention. Assays were conducted at rt or at 37° C. […] A decrease in the rate of fluorescence change in the presence of inhibitor is indicative of enzyme inhibition. Such methods are known to one skilled in the art. The results of this assay are expressed as the half-maximal inhibitory concentrations (IC50), or the inhibitory constant, Ki.
Plasma kallikrein determinations were made in 50 mM HEPES buffer at pH 7.4 containing 150 mM NaCl, 5 mM CaCl2), and 0.1% PEG 8000 (polyethylene glycol; Fisher Scientific). Determinations were made using purified Human plasma kallikrein at a final concentration of 0.5 nM (Enzyme Research Laboratories) and the synthetic substrate, Acetyl-K-P-R-AFC (Sigma #C6608) at a concentration of […].
Times required to achieve equilibration between enzyme and inhibitor were determined in control experiments. […] IC50 was determined by inflection point from a four parameter logistic curve fit. Ki was calculated using the Cheng Prusoff equation, Ki=IC50/(1+([S]/Km)).

T1 sequence (P03952 391-638 limits assumed): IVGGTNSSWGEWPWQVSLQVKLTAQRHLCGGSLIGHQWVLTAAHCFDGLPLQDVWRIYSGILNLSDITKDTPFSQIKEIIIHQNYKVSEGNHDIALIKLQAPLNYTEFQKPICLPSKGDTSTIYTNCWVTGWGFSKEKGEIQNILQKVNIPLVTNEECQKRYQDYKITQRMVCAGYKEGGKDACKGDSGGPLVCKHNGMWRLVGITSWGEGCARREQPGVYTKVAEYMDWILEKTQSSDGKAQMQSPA
T1 sequence (P03952 20-390 partner limits assumed): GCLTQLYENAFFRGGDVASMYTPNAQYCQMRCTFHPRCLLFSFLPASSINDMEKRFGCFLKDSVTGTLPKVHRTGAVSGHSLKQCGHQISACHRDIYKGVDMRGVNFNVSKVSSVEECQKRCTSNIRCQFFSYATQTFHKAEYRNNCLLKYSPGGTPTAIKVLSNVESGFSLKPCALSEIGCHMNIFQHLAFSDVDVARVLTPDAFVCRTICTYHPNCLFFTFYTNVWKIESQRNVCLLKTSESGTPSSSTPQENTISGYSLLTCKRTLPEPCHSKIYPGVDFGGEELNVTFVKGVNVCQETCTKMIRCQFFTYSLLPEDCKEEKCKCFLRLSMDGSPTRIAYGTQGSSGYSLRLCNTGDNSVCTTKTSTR

| IC50 [nM] | SMILES |
| --- | --- |
| 46 | CC(c1ccccc1)n1cc(C(=O)N2CCC[C@@]3(C2)OC(=O)Nc2ccc(Cl)c(F)c23)cn1 (single isomer, unassigned) [Example 23] |
| 38.3 | CC(c1ccccc1)n1cc(C(=O)N2CCC[C@@]3(C2)OC(=O)Nc2ccc(Cl)c(F)c23)cn1 (single isomer, unassigned) [Example 24] |
| 10.4 | C[C@H](c1cccc(Cl)c1)n1cc(C(=O)N2CCC[C@@]3(C2)OC(=O)Nc2ccc(Cl)c(F)c23)cn1 (single isomer, unassigned) [Example 28] |
| 33.8 | CCC(c1ccc2ncncc2c1)n1cc(C(=O)N2CCC[C@@]3(C2)OC(=O)Nc2ccc(Cl)c(F)c23)cn1 (single isomer, unassigned) [Example 41] |
| 4.5 | CC[C@@H](c1ccc(F)cc1)c1nnc(C(=O)N2CCC[C@@]3(C2)OC(=O)Nc2ccc(Cl)c(F)c23)[nH]1 (single isomer, unassigned) [Example 84] |
| 9.4 | O=C1Nc2ccc(Cl)c(F)c2[C@@]2(CCCN(C(=O)C3(F)CCN(Cc4ccccc4)C3)C2)O1 (single isomer, unassigned) [Example 131, (R)-1′-((S or R)-1-Benzyl-3-fluoropyrrolidine-3-carbonyl)-6-chloro-5-fluorospiro[benzo[d][1,3]oxazine-4,3′-piperidin]-2(1H)-one] |
| 43.2 | O=C1Nc2ccc(Cl)c(F)c2[C@]2(CCN(C(=O)C3CCN(Cc4ccc(Cn5ccccc5=O)cc4)C3)C2)O1 (single isomer, unassigned) [Example 136] |
| 31 | O=C1Nc2ccc(Cl)c(F)c2[C@]2(CCN(C(=O)C3CCN(Cc4ccc(Cn5ccccc5=O)cc4)C3)C2)O1 (single isomer, unassigned) [Example 137] |
| 20 | O=C1Nc2ccc(Cl)c(F)c2[C@@]2(CCCN(C(=O)c3cnn(Cc4ccc(F)c(F)c4)c3)C2)O1 [Example 4, (R)-6-Chloro-1′-(1-(3,4-difluorobenzyl)-1H-pyrazole-4-carbonyl)-5-fluorospiro[benzo[d][1,3]oxazine-4,3′-piperidin]-2(1H)-one] |
| 23.1 | O=C1Nc2ccc(Cl)c(F)c2[C@@]2(CCCN(C(=O)c3cnn(Cc4cccc(C(F)(F)F)c4)c3)C2)O1 [Example 5, (R)-6-Chloro-5-fluoro-1′-(1-(3-(trifluoromethyl)benzyl)-1H-pyrazole-4-carbonyl)spiro[benzo[d][1,3]oxazine-4,3′-piperidin]-2(1H)-one] |
| 8 | O=C1Nc2ccc(Cl)c(F)c2[C@@]2(CCCN(C(=O)c3cnn(Cc4ccc(F)c(Cl)c4)c3)C2)O1 [Example 6, (R)-6-Chloro-1′-(1-(3-chloro-4-fluorobenzyl)-1H-pyrazole-4-carbonyl)-5-fluorospiro[benzo[d][1,3]oxazine-4,3′-piperidin]-2(1H)-one] |
| 34.1 | O=C1Nc2ccc(Cl)c(F)c2[C@@]2(CCCN(C(=O)c3cnn(Cc4ccc(F)c(N5CCC5)c4)c3)C2)O1 [Example 8, (R)-1′-(1-(3-(Azetidin-1-yl)-4-fluorobenzyl)-1H-pyrazole-4-carbonyl)-6-chloro-5-fluorospiro[benzo[d][1,3]oxazine-4,3′-piperidin]-2(1H)-one] |
| 26.8 | O=C1Nc2ccc(Cl)c(F)c2[C@@]2(CCCN(C(=O)c3cnn(Cc4cccc(C5CC5)c4)c3)C2)O1 [Example 10, (R)-6-Chloro-1′-(1-(3-cyclopropylbenzyl)-1H-pyrazole-4-carbonyl)-5-fluorospiro[benzo[d][1,3]oxazine-4,3′-piperidin]-2(1H)-one] |
| 26.4 | O=C1Nc2ccc(Cl)c(F)c2[C@@]2(CCCN(C(=O)c3cnn(Cc4cncc(Cl)c4)c3)C2)O1 [Example 12, (R)-6-Chloro-1′-(1-((5-chloropyridin-3-yl)methyl)-1H-pyrazole-4-carbonyl)-5-fluorospiro[benzo[d][1,3]oxazine-4,3′-piperidin]-2(1H)-one] |
| 37.6 | COc1ccc(Cl)cc1Cn1cc(C(=O)N2CCC[C@@]3(C2)OC(=O)Nc2ccc(Cl)c(F)c23)cn1 [Example 13, (R)-6-Chloro-1′-(1-(5-chloro-2-methoxybenzyl)-1H-pyrazole-4-carbonyl)-5-fluorospiro[benzo[d][1,3]oxazine-4,3′-piperidin]-2(1H)-one] |
| 37.8 | O=C1Nc2ccc(Cl)c(F)c2[C@@]2(CCCN(C(=O)c3cnn(Cc4noc5ccccc45)c3)C2)O1 [Example 17, (R)-1′-(1-(Benzo[d]isoxazol-3-ylmethyl)-1H-pyrazole-4-carbonyl)-6-chloro-5-fluorospiro[benzo[d][1,3]oxazine-4,3′-piepridin]-2(1H)-one] |
| 50.4 | Cc1nc(Cn2cc(C(=O)N3CCC[C@@]4(C3)OC(=O)Nc3ccc(Cl)c(F)c34)cn2)sc1C [Example 18, (R)-6-Chloro-1′-(1-((4,5-dimethylthiazol-2-yl)methyl)-1H-pyrazole-4-carbonyl)-5-fluorospiro[benzo[d][1,3]oxazine-4,3′-piperidin]-2(1H)-one] |
| 27 | O=C1Nc2ccc(Cl)c(F)c2[C@@]2(CCCN(C(=O)c3cnn(Cc4cnc5ccccn45)c3)C2)O1 [Example 19, (R)-6-Chloro-5-fluoro-1′-(1-(imidazo[1,2-a]pyridin-3-ylmethyl)-1H-pyrazole-4-carbonyl)spiro[benzo[d][1,3]oxazine-4,3′-piperidin]-2(1H)-one] |
| 28.1 | CC1CN(C(=O)c2cnn(Cc3ccccc3)c2)C[C@]2(C1)OC(=O)Nc1ccc(Cl)c(F)c12 (stereo partly drawn) [Example 20, (4R)-1′-(1-Benzyl-1H-pyrazole-4-carbonyl)-6-chloro-5-fluoro-5′-methylspiro[benzo[d][1,3]oxazine-4,3′-piperidin]-2(1H)-one] |
| 12.1 | CC1(C)CN(C(=O)c2cnn(Cc3ccccc3)c2)C[C@]2(C1)OC(=O)Nc1ccc(Cl)c(F)c12 [Example 21, (R)-1′-(1-Benzyl-1H-pyrazole-4-carbonyl)-6-chloro-5-fluoro-5′,5′-dimethylspiro[benzo[d][1,3]oxazine-4,3′-piperidin]-2(1H)-one] |
| 10.9 | C[C@@H](c1cccc(Cl)c1)n1cc(C(=O)N2CCC[C@@]3(C2)OC(=O)Nc2ccc(Cl)c(F)c23)cn1 [Example 27, (R)-6-Chloro-1′-(1-((S)-1-(3-chlorophenyl)ethyl)-1H-pyrazole-4-carbonyl)-5-fluorospiro[benzo[d][1,3]oxazine-4,3′-piperidin]-2(1H)-one] |
| 27.1 | N#Cc1ccc(Cn2cc(C(=O)N3CCC[C@@]4(C3)OC(=O)Nc3ccc(Cl)c(F)c34)cn2)cc1Cl [Example 47, (R)-2-Chloro-4-((4-(6-chloro-5-fluoro-2-oxo-1,2-dihydrospiro[benzo[d][1.3]oxazine-4,3′-piperidine]-1′-carbonyl)-1H-pyrazol-1-yl)methyl)benzonitrile] |
| 32.6 | O=C1Nc2ccc(Cl)c(F)c2[C@@]2(CCCN(C(=O)c3cnn(Cc4cccc(C5CC5)c4)c3)C2)O1 [Example 48, (R)-6-Chloro-1′-(1-(3-cyclopropylbenzyl)-1H-pyrazole-4-carbonyl)-5-fluorospiro[benzo[d][1,3]oxazine-4,3′-piperidin]-2(1H)-one] |
| 47 | COC(=O)c1ccc(Cn2cc(C(=O)N3CCC[C@@]4(C3)OC(=O)Nc3ccc(Cl)c(F)c34)cn2)cc1F [Example 49, Methyl (R)-4-((4-(6-chloro-5-fluoro-2-oxo-1,2-dihydrospiro[benzo[d][1,3]oxazine-4,3′-piperidine]-1′-carbonyl)-1H-pyrazol-1-yl)methyl)-2-fluorobenzoate] |
| 13.7 | O=C1Nc2ccc(Cl)c(F)c2[C@@]2(CCCN(C(=O)c3cnn(Cc4ccc(-n5cc[nH]c5=O)cc4)c3)C2)O1 [Example 50, (R)-6-Chloro-5-fluoro-1′-(1-(4-(2-oxo-2,3-dihydro-1H-imidazol-1-yl)benzyl)-1H-pyrazole-4-carbonyl)spiro[benzo[d][1,3]oxazine-4,3′-piperidin]-2(1H)-one] |
| 35.1 | CN1CCOc2cc(Cn3cc(C(=O)N4CCC[C@@]5(C4)OC(=O)Nc4ccc(Cl)c(F)c45)cn3)ccc21 [Example 51, (R)-6-Chloro-5-fluoro-1′-(1-((4-methyl-3,4-dihydro-2H-benzo[b][1,4]oxazin-7-yl)methyl)-1H-pyrazole-4-carbonyl)spiro[benzo[d][1,3]oxazine-4,3′-piperidin]-2(1H)-one] |
| 24.1 | O=C(O)COc1ccc(Cn2cc(C(=O)N3CCC[C@@]4(C3)OC(=O)Nc3ccc(Cl)c(F)c34)cn2)cc1 [Example 52, (R)-2-(4-((4-(6-Chloro-5-fluoro-2-oxo-1,2-dihydrospiro[benzo[d][1,3]oxazine-4,3′-piperidine]-1′-carbonyl)-1H-pyrazol-1-yl)methyl)phenoxy)acetic acid] |
| 18.5 | O=C1Nc2ccc(Cl)c(F)c2[C@@]2(CCCN(C(=O)c3cnn(Cc4ccc(-c5c[nH]c(=O)o5)cc4)c3)C2)O1 [Example 53, (R)-6-Chloro-5-fluoro-1′-(1-(4-(2-oxo-2,3-dihydrooxazol-5-yl)benzyl)-1H-pyrazole-4-carbonyl)spiro[benzo[d][1,3]oxazine-4,3′-piperidin]-2(1H)-one] |
| 29.8 | O=C1Nc2ccc(Cl)c(F)c2[C@@]2(CCCN(C(=O)c3cnn(Cc4ccc5c(c4)OCCO5)c3)C2)O1 [Example 54, (R)-6-Chloro-1′-(1-((2,3-dihydrobenzo[b][1,4]dioxin-6-yl)methyl)-1H-pyrazole-4-carbonyl)-5-fluorospiro[benzo[d][1,3]oxazine-4,3′-piperidin]-2(1H)-one] |
